Source: US20100267561A1, “HERBICIDAL PYRIDAZINONE DERIVATIVES” (priority 2007, published 2010)

Columns and labels:
Assay in all cases: Test E pre-/postemergence plant response
Assay type in all cases: in vivo
Settings in all cases: scale 0 to 100
[1] = system: Italian ryegrass (Lolium multiflorum)
How it was run: (§1)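 Pre- and postemergence greenhouse test; compounds formulated in non-phytotoxic solvent with surfactant, postemergence plants 2–18 cm (1- to 4-leaf stage). Visual rating against untreated controls after 14 to 21 days, on a 0 (no effect) to 100 (complete control) scale.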

[2] = system: annual bluegrass (Poa annua)
How it was run: as §1

[3] = system: barnyardgrass (Echinochloa crus-galli)
How it was run: as §1

[4] = system: bermudagrass (Cynodon dactylon)
How it was run: as §1

[5] = system: black mustard (Brassica nigra)
How it was run: as §1

[6] = system: broadleaf signalgrass (Brachiaria platyphylla)
How it was run: as §1

[7] = system: common mallow (Malva sylvestris)
How it was run: as §1

[8] = system: common purslane (Portulaca oleracea)
How it was run: as §1

[9] = system: dallisgrass (Paspalum dilatatum)
How it was run: as §1

[10] = system: green foxtail (Setaria viridis)
How it was run: as §1

[11] = system: guineagrass (Panicum maximum)
How it was run: as §1

[12] = system: itchgrass (Rottboellia cochinchinensis)
How it was run: as §1

[13] = system: johnsongrass (Sorghum halepense)
How it was run: as §1

[14] = system: pitted morningglory (Ipomoea lacunosa)
How it was run: as §1

[15] = system: purple nutsedge (Cyperus rotundus)
How it was run: as §1

[16] = system: southern (S.) sandbur (Cenchrus echinatus)
How it was run: as §1

[17] = system: surinam grass (Brachiaria decumbens)
How it was run: as §1

## CCCc1cc(-c2ccc(Cl)cc2)nn1-c1c(O)cnn(C)c1=O [Compound 43]
[1]; 16 g ai/ha, Preemergence
  Plant response rating, Ryegrass, Italian: 90
[1]; 31 g ai/ha, Preemergence
  Plant response rating, Ryegrass, Italian: 90
[1]; 62 g ai/ha, Preemergence
  Plant response rating, Ryegrass, Italian: 90
[1]; Postemergence, 8 g ai/ha
  Plant response rating, Ryegrass, Italian: 50
[1]; Postemergence, 16 g ai/ha
  Plant response rating, Ryegrass, Italian: 80
[1]; Postemergence, 31 g ai/ha
  Plant response rating, Ryegrass, Italian: 100
[1]; Postemergence, 62 g ai/ha
  Plant response rating, Ryegrass, Italian: 100
[2]; 16 g ai/ha, Preemergence
  Plant response rating, Bluegrass: 0
[2]; 31 g ai/ha, Preemergence
  Plant response rating, Bluegrass: 0
[2]; 62 g ai/ha, Preemergence
  Plant response rating, Bluegrass: 0
[2]; Postemergence, 8 g ai/ha
  Plant response rating, Bluegrass: 0
[2]; Postemergence, 16 g ai/ha
  Plant response rating, Bluegrass: 0
[2]; Postemergence, 31 g ai/ha
  Plant response rating, Bluegrass: 0
[2]; Postemergence, 62 g ai/ha
  Plant response rating, Bluegrass: 0
[3]; 16 g ai/ha, Preemergence
  Plant response rating, Barnyardgrass: 50
[3]; 31 g ai/ha, Preemergence
  Plant response rating, Barnyardgrass: 100
[3]; 62 g ai/ha, Preemergence
  Plant response rating, Barnyardgrass: 100
[3]; Postemergence, 8 g ai/ha
  Plant response rating, Barnyardgrass: 100
[3]; Postemergence, 16 g ai/ha
  Plant response rating, Barnyardgrass: 100
[3]; Postemergence, 31 g ai/ha
  Plant response rating, Barnyardgrass: 100
[3]; Postemergence, 62 g ai/ha
  Plant response rating, Barnyardgrass: 100
[4]; 16 g ai/ha, Preemergence
  Plant response rating, Bermudagrass: 30
[4]; 31 g ai/ha, Preemergence
  Plant response rating, Bermudagrass: 70
[4]; 62 g ai/ha, Preemergence
  Plant response rating, Bermudagrass: 85
[4]; Postemergence, 8 g ai/ha
  Plant response rating, Bermudagrass: 0
[4]; Postemergence, 16 g ai/ha
  Plant response rating, Bermudagrass: 20
[4]; Postemergence, 31 g ai/ha
  Plant response rating, Bermudagrass: 20
[4]; Postemergence, 62 g ai/ha
  Plant response rating, Bermudagrass: 20
[5]; 16 g ai/ha, Preemergence
  Plant response rating, Mustard, Black: 0
[5]; 31 g ai/ha, Preemergence
  Plant response rating, Mustard, Black: 0
[5]; 62 g ai/ha, Preemergence
  Plant response rating, Mustard, Black: 0
[5]; Postemergence, 8 g ai/ha
  Plant response rating, Mustard, Black: 0
[5]; Postemergence, 16 g ai/ha
  Plant response rating, Mustard, Black: 0
[5]; Postemergence, 31 g ai/ha
  Plant response rating, Mustard, Black: 0
[5]; Postemergence, 62 g ai/ha
  Plant response rating, Mustard, Black: 0
[6]; 16 g ai/ha, Preemergence
  Plant response rating, Signalgrass: 60
[6]; 31 g ai/ha, Preemergence
  Plant response rating, Signalgrass: 100
[6]; Postemergence, 8 g ai/ha
  Plant response rating, Signalgrass: 80
[6]; Postemergence, 16 g ai/ha
  Plant response rating, Signalgrass: 80
[6]; Postemergence, 31 g ai/ha
  Plant response rating, Signalgrass: 95
[6]; Postemergence, 62 g ai/ha
  Plant response rating, Signalgrass: 98
[7]; 16 g ai/ha, Preemergence
  Plant response rating, Mallow: 0
[7]; 31 g ai/ha, Preemergence
  Plant response rating, Mallow: 0
[7]; 62 g ai/ha, Preemergence
  Plant response rating, Mallow: 0
[7]; Postemergence, 8 g ai/ha
  Plant response rating, Mallow: 0
[7]; Postemergence, 16 g ai/ha
  Plant response rating, Mallow: 0
[7]; Postemergence, 31 g ai/ha
  Plant response rating, Mallow: 0
[7]; Postemergence, 62 g ai/ha
  Plant response rating, Mallow: 0
[8]; 16 g ai/ha, Preemergence
  Plant response rating, Purslane: 0
[8]; 31 g ai/ha, Preemergence
  Plant response rating, Purslane: 0
[8]; 62 g ai/ha, Preemergence
  Plant response rating, Purslane: 0
[8]; Postemergence, 8 g ai/ha
  Plant response rating, Purslane: 0
[8]; Postemergence, 16 g ai/ha
  Plant response rating, Purslane: 0
[8]; Postemergence, 62 g ai/ha
  Plant response rating, Purslane: 0
[9]; 16 g ai/ha, Preemergence
  Plant response rating, Dallisgrass: 40
[9]; 31 g ai/ha, Preemergence
  Plant response rating, Dallisgrass: 80
[9]; 62 g ai/ha, Preemergence
  Plant response rating, Dallisgrass: 90
[9]; Postemergence, 8 g ai/ha
  Plant response rating, Dallisgrass: 0
[9]; Postemergence, 31 g ai/ha
  Plant response rating, Dallisgrass: 20
[9]; Postemergence, 62 g ai/ha
  Plant response rating, Dallisgrass: 50
[10]; 16 g ai/ha, Preemergence
  Plant response rating, Foxtail, Green: 25
[10]; 31 g ai/ha, Preemergence
  Plant response rating, Foxtail, Green: 85
[10]; 62 g ai/ha, Preemergence
  Plant response rating, Foxtail, Green: 100
[10]; Postemergence, 8 g ai/ha
  Plant response rating, Foxtail, Green: 75
[10]; Postemergence, 16 g ai/ha
  Plant response rating, Foxtail, Green: 80
[10]; Postemergence, 31 g ai/ha
  Plant response rating, Foxtail, Green: 80
[10]; Postemergence, 62 g ai/ha
  Plant response rating, Foxtail, Green: 98
[11]; 16 g ai/ha, Preemergence
  Plant response rating, Guineagrass: 95
[11]; 31 g ai/ha, Preemergence
  Plant response rating, Guineagrass: 100
[11]; 62 g ai/ha, Preemergence
  Plant response rating, Guineagrass: 100
[11]; Postemergence, 8 g ai/ha
  Plant response rating, Guineagrass: 100
[11]; Postemergence, 16 g ai/ha
  Plant response rating, Guineagrass: 100
[11]; Postemergence, 31 g ai/ha
  Plant response rating, Guineagrass: 100
[11]; Postemergence, 62 g ai/ha
  Plant response rating, Guineagrass: 100
[12]; 16 g ai/ha, Preemergence
  Plant response rating, Itchgrass: 35
[12]; 31 g ai/ha, Preemergence
  Plant response rating, Itchgrass: 50
[12]; 62 g ai/ha, Preemergence
  Plant response rating, Itchgrass: 85
[12]; Postemergence, 8 g ai/ha
  Plant response rating, Itchgrass: 20
[12]; Postemergence, 31 g ai/ha
  Plant response rating, Itchgrass: 20
[12]; Postemergence, 62 g ai/ha
  Plant response rating, Itchgrass: 75
[13]; 16 g ai/ha, Preemergence
  Plant response rating, Johnsongrass: 0
[13]; 31 g ai/ha, Preemergence
  Plant response rating, Johnsongrass: 50
[13]; 62 g ai/ha, Preemergence
  Plant response rating, Johnsongrass: 60
[13]; Postemergence, 8 g ai/ha
  Plant response rating, Johnsongrass: 15
[13]; Postemergence, 16 g ai/ha
  Plant response rating, Johnsongrass: 25
[13]; Postemergence, 31 g ai/ha
  Plant response rating, Johnsongrass: 65
[14]; 16 g ai/ha, Preemergence
  Plant response rating, Morningglory: 0
[14]; 31 g ai/ha, Preemergence
  Plant response rating, Morningglory: 20
[14]; 62 g ai/ha, Preemergence
  Plant response rating, Morningglory: 30
[14]; Postemergence, 8 g ai/ha
  Plant response rating, Morningglory: 0
[14]; Postemergence, 16 g ai/ha
  Plant response rating, Morningglory: 0
[14]; Postemergence, 31 g ai/ha
  Plant response rating, Morningglory: 0
[14]; Postemergence, 62 g ai/ha
  Plant response rating, Morningglory: 0
[15]; 16 g ai/ha, Preemergence
  Plant response rating, Nutsedge, Purple: 0
[15]; 31 g ai/ha, Preemergence
  Plant response rating, Nutsedge, Purple: 0
[15]; 62 g ai/ha, Preemergence
  Plant response rating, Nutsedge, Purple: 75
[15]; Postemergence, 8 g ai/ha
  Plant response rating, Nutsedge, Purple: 0
[15]; Postemergence, 16 g ai/ha
  Plant response rating, Nutsedge, Purple: 0
[15]; Postemergence, 31 g ai/ha
  Plant response rating, Nutsedge, Purple: 0
[15]; Postemergence, 62 g ai/ha
  Plant response rating, Nutsedge, Purple: 0
[16]; 16 g ai/ha, Preemergence
  Plant response rating, Sandbur, S.: 60
[16]; 31 g ai/ha, Preemergence
  Plant response rating, Sandbur, S.: 75
[16]; 62 g ai/ha, Preemergence
  Plant response rating, Sandbur, S.: 98
[16]; Postemergence, 8 g ai/ha
  Plant response rating, Sandbur, S.: 80
[16]; Postemergence, 16 g ai/ha
  Plant response rating, Sandbur, S.: 95
[16]; Postemergence, 31 g ai/ha
  Plant response rating, Sandbur, S.: 98
[16]; Postemergence, 62 g ai/ha
  Plant response rating, Sandbur, S.: 100
[17]; 16 g ai/ha, Preemergence
  Plant response rating, Surinam Grass: 50
[17]; 31 g ai/ha, Preemergence
  Plant response rating, Surinam Grass: 70
[17]; 62 g ai/ha, Preemergence
  Plant response rating, Surinam Grass: 100
[17]; Postemergence, 8 g ai/ha
  Plant response rating, Surinam Grass: 95
[17]; Postemergence, 16 g ai/ha
  Plant response rating, Surinam Grass: 98
[17]; Postemergence, 31 g ai/ha
  Plant response rating, Surinam Grass: 98
[17]; Postemergence, 62 g ai/ha
  Plant response rating, Surinam Grass: 98
